The nature of this data set: Solubility in water as a function of pH. The data set is classed as physicochemical.

Consider one compound from US9925174B2, “Administration form for the oral application of 3-[(2-{[4-(hexyloxycarbonyl-amino-imino-methyl)-phenylamino]-methyl}-1-methyl-1 H-benzimidazol acid ethyl ester and the salts thereof” (Boehringer Ingelheim International GmbH, priority 2002, dated 2018).

As for `CCCCCCOC(=O)NC(=N)c1ccc(NCc2nc3cc(C(=O)N(CCC(=O)OCC)c4ccccn4)ccc3n2C)cc1` [compound of formula I, ethyl 3-[(2-{[4-(hexyloxycarbonylamino-imino-methyl)-phenylamino]-methyl}-1-methyl-1H-benzimidazole-5-carbonyl)-pyridin-2-yl-amino]-propionate], the “solubility in water at low pH levels” value (low pH) is given as “dissolves relatively well”. For the setting “pH above 5, definition of the European Pharmacopoeia”, the “solubility in water at pH levels above 5” value is given as “virtually insoluble”.
